According to patent US4605413A, “Stimulation of chemotaxis by chemotactic peptides” (The University of Alabama at Birmingham, priority 1983, dated 1986):
No end group written: not given here.

How the values were obtained:
Format in all cases: cell-based
[1] = system: young fibroblasts (not yet synthesizing elastin); assay: Chemotaxis of young (immature) fibroblasts before and after induced differentiation; details: FIG. 2
Procedure: (§1) The chemotactic response of fibroblasts to a hexapeptide of the invention was measured using the techniques described in Senior et al, J. Clin. Invest., 70, 614-618 (1982), which is herein incorporated by reference. Although the actual conditions used may vary slightly, the following generally describes the experimental conditions.
(§2) Chemotaxis was determined in a multi-blind well apparatus using a polycarbonate membrane with 8-μm pores on top of a cellulose nitrate membrane having 0.45-μm pores to separate each well into upper and lower compartments. The lower compartment was filled with 240 μl of solution to be assayed (or control medium) and then covered with the membranes. In the upper compartment was placed 350 μl of cell suspension containing 1.2×10^5 cells/ml.
After both compartments of the wells were filled, the chemotaxis apparatus was placed in a humidified incubator at 37° C. in an atmosphere of 5% CO2 -95% air for several hours. […] Cell migration was determined under high dry magnification (×400) by counting the cells that had moved to the interface between the two membranes and those on the lower membrane. Several high power fields (H.P.F.) were counted for each membrane. […] Cell migration is expressed as the net number of cells per H.P.F.; i.e., the number of cells per H.P.F. minus the number of cells per H.P.F. that migrated in response to control medium.

fibroblasts = assay: Fibroblast chemotaxis in multi-blind well apparatus; details: for chemotactic activity in presence of antibody to elastin: polyclonal antibody to elastin present, FIG. 4; for chemotactic activity of isolated hexapeptides: qualitative; for Fibroblast Migration, Net Cells/HPF ± SEM: N = 15
Procedure: as §1, §2
After both compartments of the wells were filled, the chemotaxis apparatus was placed in a humidified incubator at 37° C. in an atmosphere of 5% CO2 -95% air for several hours. The apparatus was then disassembled, and each membrane pair was removed and stained with hematoxylin. Cell migration was determined under high dry magnification (×400) by counting the cells that had moved to the interface between the two membranes and those on the lower membrane. Several high power fields (H.P.F.) were counted for each membrane. Multiple determinations of each experiment were conducted, and the results pooled. Cell migration is expressed as the net number of cells per H.P.F.; i.e., the number of cells per H.P.F. minus the number of cells per H.P.F. that migrated in response to control medium.

Monocytes = assay: Desensitization of monocyte chemotaxis by pre-exposure to elastin peptides; details: for % CONTROL: desensitized vs control; for Monocyte chemotaxis, CONTROL: no pre-exposure; for Monocyte chemotaxis, CONTROL / Monocyte chemotaxis, DESENSITIZED: mean of 15; for Monocyte chemotaxis, DESENSITIZED: pre-exposed to elastin peptides; for effect of pre-exposure to elastin-derived peptide fragments on monocyte chemotactic response: monocytes pre-exposed to elastin-derived peptide fragments, qualitative
[2] = FIG. 1, dose response of fibroblasts
[3] = chemoattractant at concentration for maximum chemotaxis

In the case of platelet-derived growth factor [PDGF], the “migration of young fibroblasts” value [1] is reported as “have the capacity to migrate”, the “Fibroblast Migration, Positive Control” value (fibroblasts; PDGF, 10^-9 M) is reported as 31 Cells/HPF and the “chemotactic activity in presence of antibody to elastin” value (fibroblasts) is reported as “has no effect on the chemotactic activity”.

In the case of H-GVGVAP-OH [H--GVGVAP--OH], the “chemotactic activity of isolated hexapeptides” value (fibroblasts) is reported as “chemotactic activity is also seen”.

In the case of H-VAPGVG-OH [H--VAPGVG--OH], the “chemotactic activity of isolated hexapeptides” value (fibroblasts) is reported as “chemotactic activity is also seen”.

`CSCC[C@H](NC=O)C(=O)N[C@@H](CC(C)C)C(=O)N[C@@H](Cc1ccccc1)C(=O)O` [FMLP, formylmethionylleucylphenylalanine, reference compound] was tested, and the “% CONTROL” value (Monocytes; chemoattractant 10^-8 M) was 77%, the “Monocyte chemotaxis, CONTROL” value (Monocytes; chemoattractant 10^-8 M) was 100 Cells per high power field and the “Monocyte chemotaxis, DESENSITIZED” value (Monocytes; chemoattractant 10^-8 M) was 77 Cells per high power field. The “% CONTROL” value (Monocytes; chemoattractant 10^-9 M) was 100%, the “Monocyte chemotaxis, CONTROL” value (Monocytes; chemoattractant 10^-9 M) was 45 Cells per high power field and the “Monocyte chemotaxis, DESENSITIZED” value (Monocytes; chemoattractant 10^-9 M) was 45 Cells per high power field. The “effect of pre-exposure to elastin-derived peptide fragments on monocyte chemotactic response” value (“effect of pre-exposure” for short) (Monocytes) was “pre-exposure has no effect on response”.

In the case of H-APGVGV-OH [H--APGVGV--OH], the “chemotactic activity of isolated hexapeptides” value (fibroblasts) is reported as “chemotactic activity is also seen”.

H-GVAPGV-OH [H--GVAPGV--OH] was tested, and the “chemotactic activity of isolated hexapeptides” value (fibroblasts) was “chemotactic activity is also seen”.

In the case of H-PGVGVA-OH [H--PGVGVA--OH], the “chemotactic activity of isolated hexapeptides” value (fibroblasts) is reported as “chemotactic activity is also seen”.

In the case of “VGVAPG [VGVAPG, VAL--GLY--VAL--ALA--PRO--GLY]”, the “migration of young fibroblasts” value [1] is reported as “do not migrate”, the “concentration of greatest chemotactic activity” value (fibroblasts; [2]) is reported as 10^-9 M and the “concentrations at which chemotactic response was seen” value (fibroblasts; [2]) is reported as “higher than 10^-11 M”. The “nature of fibroblast response (chemotaxis vs random movement)” value (fibroblasts; Table 1 gradient analysis) was “chemotaxis and not simply stimulation of random movement”, the “Fibroblast Migration, Net Cells/HPF ± SEM” value (fibroblasts; VGVAPG lower compartment 0, upper compartment 10^-8 M) was -2 ± 0.5 Net Cells/HPF and the “Fibroblast Migration, Net Cells/HPF ± SEM” value (fibroblasts; VGVAPG lower compartment 0, upper compartment 10^-9 M) was 0 ± 0.7 Net Cells/HPF. The “Fibroblast Migration, Net Cells/HPF ± SEM” value (fibroblasts; VGVAPG lower compartment 0, upper compartment 10^-10 M) was 1 ± 0.6 Net Cells/HPF, the “Fibroblast Migration, Net Cells/HPF ± SEM” value (fibroblasts; VGVAPG lower compartment 10^-8 M, upper compartment 0) was 27 ± 1.7 Net Cells/HPF and the “Fibroblast Migration, Net Cells/HPF ± SEM” value (fibroblasts; VGVAPG lower compartment 10^-8 M, upper compartment 10^-8 M) was 1 ± 0.7 Net Cells/HPF. The “Fibroblast Migration, Net Cells/HPF ± SEM” value (fibroblasts; VGVAPG lower compartment 10^-8 M, upper compartment 10^-9 M) was 3 ± 0.6 Net Cells/HPF, the “Fibroblast Migration, Net Cells/HPF ± SEM” value (fibroblasts; VGVAPG lower compartment 10^-8 M, upper compartment 10^-10 M) was 13 ± 1.8 Net Cells/HPF and the “Fibroblast Migration, Net Cells/HPF ± SEM” value (fibroblasts; VGVAPG lower compartment 10^-9 M, upper compartment 0) was 15 ± 1.7 Net Cells/HPF. For the same molecule, the “Fibroblast Migration, Net Cells/HPF ± SEM” value (fibroblasts; VGVAPG lower compartment 10^-9 M, upper compartment 10^-8 M) was 0 ± 0.6 Net Cells/HPF, the “Fibroblast Migration, Net Cells/HPF ± SEM” value (fibroblasts; VGVAPG lower compartment 10^-9 M, upper compartment 10^-9 M) was 0 ± 0.4 Net Cells/HPF and the “Fibroblast Migration, Net Cells/HPF ± SEM” value (fibroblasts; VGVAPG lower compartment 10^-9 M, upper compartment 10^-10 M) was 7 ± 1.3 Net Cells/HPF. The “Fibroblast Migration, Net Cells/HPF ± SEM” value (fibroblasts; VGVAPG lower compartment 10^-10 M, upper compartment 0) was 4 ± 1.0 Net Cells/HPF, the “Fibroblast Migration, Net Cells/HPF ± SEM” value (fibroblasts; VGVAPG lower compartment 10^-10 M, upper compartment 10^-8 M) was 1 ± 1.0 Net Cells/HPF and the “Fibroblast Migration, Net Cells/HPF ± SEM” value (fibroblasts; VGVAPG lower compartment 10^-10 M, upper compartment 10^-9 M) was -3 ± 0.4 Net Cells/HPF. The “Fibroblast Migration, Net Cells/HPF ± SEM” value (fibroblasts; VGVAPG lower compartment 10^-10 M, upper compartment 10^-10 M) was 2 ± 0.7 Net Cells/HPF, the “chemotactic activity of isolated hexapeptides” value (fibroblasts) was “most chemotactic of the isolated hexapeptides” and the “chemotactic activity in presence of antibody to elastin” value (fibroblasts) was “blocks the chemotactic activity”. The “% CONTROL” value (Monocytes; chemoattractant 10^-8 M) was 0%, the “Monocyte chemotaxis, CONTROL” value (Monocytes; chemoattractant 10^-8 M) was 70 Cells per high power field and the “Monocyte chemotaxis, DESENSITIZED” value (Monocytes; chemoattractant 10^-8 M) was -4 Cells per high power field. For the same molecule, the “% CONTROL” value (Monocytes; chemoattractant 10^-9 M) was 0%, the “Monocyte chemotaxis, CONTROL” value (Monocytes; chemoattractant 10^-9 M) was 42 Cells per high power field and the “Monocyte chemotaxis, DESENSITIZED” value (Monocytes; chemoattractant 10^-9 M) was -2 Cells per high power field. For the same molecule, the “effect of pre-exposure” value (Monocytes) was “no longer show chemotaxis”.

B1: C5A: activity derived from the fifth component of complement (C5a) (protein, UniProt P01031 678-751, looked up)
C5a anaphylatoxin: TLQKKIEEIAAKYKHSVVKKCCYDGACVNNDETCEQRAARISLGPRCIKAFTECCVVASQLRANISHKDMQLGR
modifications: C5a anaphylatoxin
B1 was tested, and the “% CONTROL” value (Monocytes; [3]) was 100%, the “Monocyte chemotaxis, CONTROL” value (Monocytes; [3]) was 102 Cells per high power field and the “Monocyte chemotaxis, DESENSITIZED” value (Monocytes; [3]) was 102 Cells per high power field. For the same molecule, the “effect of pre-exposure” value (Monocytes) was “pre-exposure has no effect on response”.
